Measured values as given in PMC10499793 (Nature Communications, 2023).

Assays:
Conditions in all cases: 4-nitrothiophenol as nucleophile; 400 μM thiamine; pH 7.2, 37 °C
MxThi1 = target: T1, MxThi1 (Myxococcus xanthus, UniProt Q1D3T2); assay: thiaminase I activity assay, 4-nitrothiophenol consumption at […] nm; format: biochemical
T1 construct: gene MXAN_4523
T1 sequence (Q1D3T2 36-418): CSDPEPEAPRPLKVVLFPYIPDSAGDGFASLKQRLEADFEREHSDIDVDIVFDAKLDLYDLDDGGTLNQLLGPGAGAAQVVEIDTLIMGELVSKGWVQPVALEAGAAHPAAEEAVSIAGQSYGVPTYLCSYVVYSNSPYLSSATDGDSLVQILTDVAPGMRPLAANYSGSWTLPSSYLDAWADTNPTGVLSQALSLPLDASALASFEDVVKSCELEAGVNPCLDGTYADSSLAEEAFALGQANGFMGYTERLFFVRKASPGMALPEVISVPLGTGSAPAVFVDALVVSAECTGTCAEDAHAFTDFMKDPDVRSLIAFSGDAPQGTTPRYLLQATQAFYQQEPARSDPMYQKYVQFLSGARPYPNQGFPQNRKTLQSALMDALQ

CbThi1 = target: T2, CbThi1 (Clostridium botulinum, UniProt A5HZW3)
T2 construct: gene CBO0770

AcThi1 = target: T3, AcThi1 (Archangium violaceum, UniProt A0ACG8CQS0); assay: thiaminase I activity assay, 4-nitrothiophenol consumption at […] nm; format: biochemical
T3 construct: gene JRI60_22580
T3 sequence (A0ACG8CQS0 24-424): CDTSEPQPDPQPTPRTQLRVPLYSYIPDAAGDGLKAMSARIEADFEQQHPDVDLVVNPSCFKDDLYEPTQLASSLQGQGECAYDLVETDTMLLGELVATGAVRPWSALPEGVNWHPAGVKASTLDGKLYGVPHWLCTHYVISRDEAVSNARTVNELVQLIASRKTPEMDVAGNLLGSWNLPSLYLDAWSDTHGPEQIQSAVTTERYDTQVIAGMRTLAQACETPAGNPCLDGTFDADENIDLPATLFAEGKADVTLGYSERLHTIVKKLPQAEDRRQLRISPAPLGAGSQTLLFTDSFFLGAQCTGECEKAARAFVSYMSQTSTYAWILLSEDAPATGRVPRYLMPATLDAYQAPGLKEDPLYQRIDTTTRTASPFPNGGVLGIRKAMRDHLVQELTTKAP

T2 sequence (A5HZW3 32-404 limits assumed): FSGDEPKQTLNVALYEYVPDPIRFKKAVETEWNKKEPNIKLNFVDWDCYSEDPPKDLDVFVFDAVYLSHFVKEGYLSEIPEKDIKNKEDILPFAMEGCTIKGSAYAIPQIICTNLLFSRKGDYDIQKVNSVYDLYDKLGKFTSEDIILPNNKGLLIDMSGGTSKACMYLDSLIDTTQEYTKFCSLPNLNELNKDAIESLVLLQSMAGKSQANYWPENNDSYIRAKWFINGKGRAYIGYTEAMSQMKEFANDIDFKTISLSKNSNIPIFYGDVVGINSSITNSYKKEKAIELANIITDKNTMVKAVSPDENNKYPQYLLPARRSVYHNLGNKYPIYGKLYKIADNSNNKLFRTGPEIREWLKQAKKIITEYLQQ

Cc1ncc(C[n+]2csc(CCO)c2C)c(N)n1 [thiamine]
thiaminase I activity assay, 4-nitrothiophenol consumption at 411 nm (MxThi1): All these recombinant proteins exhibited thiaminase I activity
thiaminase I activity assay, 4-nitrothiophenol consumption at 411 nm (CbThi1): All these recombinant proteins exhibited thiaminase I activity
thiaminase I activity assay, 4-nitrothiophenol consumption at 411 nm (AcThi1): All these recombinant proteins exhibited thiaminase I activity
